Measured values from US5646000A, “Compounds and methods for identifying activated platelets” (Merck & Co., Inc., priority 1994, dated 1997).
Read-outs that look alike come from different tables or passages of the source.

Legend:
[1] = tested on: ADP-stimulated platelets; test: Fibrinogen Receptor Antagonist Assay: ADP-stimulated platelet aggregation (gel-filtered human platelets); format: cell-based; settings: gel-filtered human platelets 2×10^8 per ml, fibrinogen 100 μg/ml, Ca^2+ 1 mM, 10 μM ADP, 37° C.
Description: The fibrinogen receptor antagonist activity is based on evaluation of inhibition of ADP-stimulated platelets. Aggregation requires that fibrinogen bind to and occupy the fibrinogen receptor site. Inhibitors of fibrinogen binding inhibit aggregation.
Platelet aggregation was measured at 37° C. in a Chronolog aggregometer. The reaction mixture contained gel-filtered human platelets (2×10^8 per ml), fibrinogen (100 μg/ml), Ca^2+ (1 mM), and the compound to be tested. The aggregation was initiated by adding 10 μM ADP after the other components had been added. The reaction was allowed to proceed for at least 2 minutes.

[2] = biological target: inactive form of GP IIb/IIIa (unactivated GP IIb/IIIa) (Homo sapiens, UniProt P05106+P08514); test: Fluorescence displacement of probe 2-8 from inactive (unactivated) form of GP IIb/IIIa; format: binding
[3] = biological target: active form of GP IIb/IIIa (Homo sapiens, UniProt P05106+P08514); test: Fluorescence displacement of probe 2-8 from active form of purified GP IIb/IIIa; format: binding
Description: The purified glycoprotein IIb/IIIa (final concentration 0.64 μM, active form which binds to RGDS affinity column) was mixed with fluorescent antagonist 2-8 (final concentration 1 μM) in a fluorescence cell and fluorescence recorded (excitation wavelength 340 nm, emission range 360-600 nm).

[4] = unactivated GP IIb/IIIa (Table 1), read-out: Ki (nM) (unactivated GP IIb/IIIa)

Sequence of inactive form of GP IIb/IIIa (unactivated GP IIb/IIIa) (P08514 32-887 limits assumed): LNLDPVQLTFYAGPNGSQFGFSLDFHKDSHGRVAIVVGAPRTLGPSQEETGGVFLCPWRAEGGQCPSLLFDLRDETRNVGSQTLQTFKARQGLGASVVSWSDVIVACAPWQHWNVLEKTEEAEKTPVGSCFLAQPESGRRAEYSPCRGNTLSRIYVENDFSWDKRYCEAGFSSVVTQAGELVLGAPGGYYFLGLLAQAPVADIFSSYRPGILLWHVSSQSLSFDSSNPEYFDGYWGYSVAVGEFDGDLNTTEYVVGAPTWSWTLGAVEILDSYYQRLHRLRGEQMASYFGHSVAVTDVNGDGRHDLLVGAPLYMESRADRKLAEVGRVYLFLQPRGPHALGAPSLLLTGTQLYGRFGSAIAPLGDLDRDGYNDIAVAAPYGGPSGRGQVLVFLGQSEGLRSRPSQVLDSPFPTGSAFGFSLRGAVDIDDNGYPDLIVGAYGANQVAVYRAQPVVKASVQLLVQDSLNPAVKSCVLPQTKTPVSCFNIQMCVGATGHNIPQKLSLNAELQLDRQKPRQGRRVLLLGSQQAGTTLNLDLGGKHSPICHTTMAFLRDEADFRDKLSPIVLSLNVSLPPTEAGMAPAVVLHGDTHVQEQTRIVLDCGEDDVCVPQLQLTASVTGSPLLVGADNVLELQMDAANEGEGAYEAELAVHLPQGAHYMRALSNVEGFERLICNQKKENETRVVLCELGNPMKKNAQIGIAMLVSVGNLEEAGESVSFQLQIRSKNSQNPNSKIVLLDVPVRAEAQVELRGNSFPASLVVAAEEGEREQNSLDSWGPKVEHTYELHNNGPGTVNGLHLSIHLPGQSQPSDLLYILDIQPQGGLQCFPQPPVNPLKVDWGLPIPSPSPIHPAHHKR
Sequence of inactive form of GP IIb/IIIa (unactivated GP IIb/IIIa) (P08514 891-1039 partner limits assumed): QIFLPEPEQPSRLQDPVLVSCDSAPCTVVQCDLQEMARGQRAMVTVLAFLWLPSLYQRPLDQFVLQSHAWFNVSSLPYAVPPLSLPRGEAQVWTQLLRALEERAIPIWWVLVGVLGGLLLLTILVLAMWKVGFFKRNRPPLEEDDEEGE
Sequence of inactive form of GP IIb/IIIa (unactivated GP IIb/IIIa) (P05106 27-788): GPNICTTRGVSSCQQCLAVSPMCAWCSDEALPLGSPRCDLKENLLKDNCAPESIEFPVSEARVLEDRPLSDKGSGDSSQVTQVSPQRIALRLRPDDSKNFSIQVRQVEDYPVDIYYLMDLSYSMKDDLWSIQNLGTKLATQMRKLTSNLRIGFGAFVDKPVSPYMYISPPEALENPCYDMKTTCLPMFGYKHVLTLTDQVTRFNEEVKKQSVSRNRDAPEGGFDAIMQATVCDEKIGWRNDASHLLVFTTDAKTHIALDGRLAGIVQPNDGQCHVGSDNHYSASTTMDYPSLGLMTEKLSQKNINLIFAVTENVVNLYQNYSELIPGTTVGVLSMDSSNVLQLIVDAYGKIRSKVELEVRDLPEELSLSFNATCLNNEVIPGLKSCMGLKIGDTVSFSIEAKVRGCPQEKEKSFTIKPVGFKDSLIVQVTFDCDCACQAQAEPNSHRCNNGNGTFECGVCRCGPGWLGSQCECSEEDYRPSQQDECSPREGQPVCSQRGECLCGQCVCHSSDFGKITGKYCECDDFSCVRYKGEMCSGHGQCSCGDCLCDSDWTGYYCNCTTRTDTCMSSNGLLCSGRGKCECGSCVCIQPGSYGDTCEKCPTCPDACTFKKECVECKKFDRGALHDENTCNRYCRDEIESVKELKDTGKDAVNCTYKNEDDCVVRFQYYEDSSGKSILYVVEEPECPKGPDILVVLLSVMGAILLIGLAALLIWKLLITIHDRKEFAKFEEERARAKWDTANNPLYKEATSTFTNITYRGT
Sequence of active form of GP IIb/IIIa (P08514 32-887 limits assumed): as the sequence (P08514 32-887 limits assumed) above
Sequence of active form of GP IIb/IIIa (P08514 891-1039 partner limits assumed): as the sequence (P08514 891-1039 partner limits assumed) above
Sequence of active form of GP IIb/IIIa (P05106 27-788): as the sequence (P05106 27-788) above

Row | SMILES | IC50 [1] | Ki [2, 4] | Ki ([3]; active form of GP IIb/IIIa, binds to RGDS affinity column, read-out: Ki of fluorescence antagonist 2-8 (used for the calculation)) | Ki ([3]; GP IIb/IIIa 0.64 μM, probe 2-8 1 μM, excitation 340 nm, change in fluorescence at 550 nm, read-out: Ki for nonfluorescent antagonist toward the active form of GP IIb/IIIa) | Ki ([2]; inactive form, does not bind to RGDS affinity column, displacement of 2-8, read-out: Ki on inactive form of GP IIb/IIIa)
1 | O=C(NC[C@H](NS(=O)(=O)c1cccnc1)C(=O)O)c1cc2cc(CCC3CCNCC3)sc2s1 [Compound E, 5-[2-(Piperidin-4-yl)ethyl]thieno[2,3-b]thiophene-2-N-[3-2(S)-(3-pyridylsulfonylamino)propionic acid] carboxamide] | 8 nM | ≤ 2.7 nM |  |  | 
2 | CCCCS(=O)(=O)N[C@@H](CNC(=O)c1ccc2c(c1)C(=O)N(CCC1CCNCC1)C2)C(=O)O [Compound D, 1-H-isoindole-5-carboxamide, 2,3 dihydro-N-[3-(2(S)-n-butylsulfonylamino)propionic acid]-2-[2-(4-piperidinyl)ethyl]-3-oxo] | 21 nM | 2.4 nM |  |  | 
3 | CN(C)c1cccc2c(S(=O)(=O)N[C@@H](CNC(=O)c3ccc4c(c3)C(=O)N(CCC3CCNCC3)C4)C(=O)O)cccc12 [Compound 2-8, 1H-Isoindole-5-carboxamide, 2,3-dihydro-N-[2(S)-dansylamino-3-aminopropionic acid]-2-[2-(4-piperidinyl)ethyl]-3-oxo] |  |  | 3.7 nM |  | 

Further lines, results first:

Row | IC50 [1] | Ki [2, 4] | Ki ([3]; active form of GP IIb/IIIa, binds to RGDS affinity column, read-out: Ki of fluorescence antagonist 2-8 (used for the calculation)) | Ki ([3]; GP IIb/IIIa 0.64 μM, probe 2-8 1 μM, excitation 340 nm, change in fluorescence at 550 nm, read-out: Ki for nonfluorescent antagonist toward the active form of GP IIb/IIIa) | Ki ([2]; inactive form, does not bind to RGDS affinity column, displacement of 2-8, read-out: Ki on inactive form of GP IIb/IIIa) | SMILES
4 | 27 nM | 99 nM |  |  |  | O=C(O)CCNC(=O)c1ccc2c(c1)C(=O)N(CCC1CCNCC1)C2 [Compound A, 2,3-Dihydro-N-(2-carboxyethyl)-2-[2-(4-piperidinyl)ethyl]-3-oxo-1-H-isoindole-5-carboxamide]
5 | 94 nM |  |  | 4 nM | 470 nM | O=C(O)C[C@@H](CCc1c[nH]c2ccccc12)NC(=O)CNC(=O)CCCC1CCNCC1 [Compound B, Pib-Gly-3(R)-[2(indol-3-yl)ethyl]β-alanine hydrogen chloride]
